Measured values taken from patent US20230321025A1, “METHOD AND COMPOUND FOR THE TREATMENT AND ELIMINATION OF AN IMMUNODEFICIENCY CONDITION” (priority 2020, published 2023).
Values after ≈ are worked out from the molar mass of the structure shown.

Tests used:
[1] = test system: CEM-SS T-lymphoblastoid cells; experiment: Drug-induced cytotoxicity in CEM-SS cells (tetrazolium reduction); conditions: for Toxicity testing, mean optical density: human, 6 days
From the text: This assay was used to test the effectiveness of anti-HIV drug monotherapy in the established T-cell line CEM-SS infected with HIV-1RF, HIV-1IIIb, HIV-2ROD, or other cytolytic variants of HIV.
The drugs were solubilized in DMSO (dimethyl sulfoxide). […] CEM-SS cells were in logarithmic growth phase at the time of experimentation. Virus (HIV-1RF) stocks that past the necessary quality controls (killing effect on the type of cells used, limited variability, etc) were thawed and maintained on ice until required for addition.
Half-log serial dilutions of the antiviral agent or compound of the invention, H2K1001 (90i), were made in tissue culture media (RPMI 1640 without phenol red, supplemented with 10% heat inactivated fetal bovine serum, 1% L-Glutamine, 1% Pen/Strep and 50 ug/ml gentimycin). Virus, cell, drug and diluent (ethanol) controls were included for these tests. Virus was added after cells and drugs were mixed. Cell, drug, and virus containing cultures were incubated for six (6) days without additional feeding at which time the cultures were evaluated macroscopically and microscopically for cell toxicity, and the tetrazolium salt […] was added for quantitation by the colorimetric determination of formazan production (optical density).
Drug efficacy and cytotoxicity effects were determined six days after infection by the metabolic reduction of the tetrazolium salt XTT to its‘ formazan by surviving cells and was quantitated by determination of optical density at 450 nm with background subtraction at 650 nm (Tables 1-4).
The drug plate analysis reports from this assay are provided below in Tables 1-4. Calculated endpoints (EC50, etc.) were determined using Cho and Cho Median Effect Equation (Daids Virology Manual for HIV Laboratories, Compiled by The Division of Aids, National Institute of Allergy and Infectious Diseases, National Institutes of Health and Collaborating Investigators, Version January 1997).

[2] = test system: gamma interferon production; experiment: Gamma interferon production in spleenocyte of mice; type: cell-based; conditions: versus positive control PMA-Ionomycin combination
From the text: Referring again to FIG. 14, activated CD8+ cells are reported to produce high levels of gamma interferon, which may be involved in the anti-HIV-1 immune responses, contributing to both control of viral spread and concomitant lymphoid follicular lyses. […] This finding may have a far-reaching implication and relevant in the restoration of immune system competence.

[3] = test system: monotropic HIV-1 (macbal); experiment: Antiretroviral effect against monotropic/neurotropic HIV-1 in monocyte; type: cell-based; conditions: monotropic HIV-1 (macbal) in monocyte
HIV-1 = experiment: Cell based time course study (mode of action); conditions: AZT and Indinavir as controls
From the text: As such, the cell based time course study is such an important tool for the determination of viral kinetics and a mode of action for a drug. […] The dynamics of the interactions relate to the viral kinetic of infection and drug addition at various time points. In the various cell-based assays conducted on H2K1001 and/or 90I, it may be reasonably concluded that the compound works both early and late.

[4] = test system: multi-drug resistant HIV-1 (MDR-27221); experiment: Inhibitory activity against multi-drug resistant HIV-1 clinical isolate; type: cell-based; conditions: MDR-27221 strain
From the text: Furthermore, a resistance conferring mutation has been identified for virtually all antiretroviral agents in clinical practice. A test virus parental stock originated from a genotypic antiretroviral resistance test (GART) study. Additionally, a clinical isolate was pre-confirmed for genetic and phenotypic variance prior to this test. […] Accordingly, the fact that 90I may be effective against MDR viruses with multiple modes of action, it can replace the need for combination HIV drug therapy. This finding may be highly significant because typical current single target-oriented designer antiretroviral drugs have seriously been challenged by resistant viruses. Due to natural selection, the HIV-1 virus may have developed several survival strategies that include mutation.

## O=C(OCCOCCOC(=O)c1ccccc1)c1ccccc1 [90I, diethylene glycol dibenzoate]
[1]; 0.01 ug/ml
  Toxicity % CC: 100 % CC
  Toxicity testing, mean optical density: 2.4317
[1]; 0.03 ug/ml
  Toxicity % CC: 103 % CC
  Toxicity testing, mean optical density: 2.4969
[1]; 0.1 ug/ml
  Toxicity % CC: 104 % CC
  Toxicity testing, mean optical density: 2.5149
[1]; 0.3 ug/ml
  Toxicity % CC: 100 % CC
  Toxicity testing, mean optical density: 2.4130
[1]; 1 ug/ml
  Toxicity % CC: 100 % CC
  Toxicity testing, mean optical density: 2.4177
[1]; 3 ug/ml
  Toxicity % CC: 99 % CC
  Toxicity testing, mean optical density: 2.4007
[1]; 10 ug/ml
  Toxicity % CC: 93 % CC
[1]; 33 ug/ml
  Toxicity % CC: 94 % CC
  Toxicity testing, mean optical density: 2.2879
[1]; 33 ug/ml, listed as H2K1001 (90I)
  Toxicity testing, optical density of single wells: 2.3330
[1]; 100 ug/ml
  Toxicity % CC: 106 % CC
  Toxicity testing, mean optical density: 2.5604
[1]; CEM-SS, high test concentration 100 ug/ml
  50% inhibitory concentration, IC50 (drug induced toxicity): greater than 100 ug/ml
[1]; Homo sapiens, CEM-SS
  IC50: > 100 µg/mL
[2]
  amount of gamma interferon produced: equivalent to that of the positive control
[3]; Human immunodeficiency virus 1, read-out: 50% effective concentration (EC50)
  EC50: 0.03 µg/mL (≈ 0.0954 µM)
[3]
  TI: greater than 4000
HIV-1
  mode of action (time of inhibition): inhibit HIV-1 both early and late
[4]; Human immunodeficiency virus 1
  EC50: 3 µg/mL
[4]
  TI: > 333
